In ChEMBL document CHEMBL1201862, “PubChem BioAssay data set” (2004):
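In this assay, cells in 96-well plates receive the compound at five concentrations for 48 hours. Endpoints are linearly interpolated between the surrounding concentrations. GI50 marks 50% less growth.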 The source made the active and inactive calls. Cut-off read from the data, not from the text of the source: active = GI50 up to about 1.1 µM and inactive = higher. Peptide text beside a SMILES is read from it. * marks the point of attachment. Cbz = O=C(OCc1ccccc1)*; NHNH2 = NN*

Columns and labels:
Test in all cases: NCI tumour cell line growth inhibition, 48 h
[1] = tested on: 786-0
[2] = tested on: A498
[3] = tested on: A549
[4] = tested on: ACHN
[5] = tested on: BT-549
[6] = tested on: CAKI-1
[7] = tested on: CCRF-CEM
[8] = tested on: COLO 205
[9] = tested on: DU-145
[10] = tested on: EKVX
[11] = tested on: HCC 2998
[12] = tested on: HCT-116
[13] = tested on: HCT-15
[14] = tested on: HL-60
[15] = tested on: HOP-62
[16] = tested on: HOP-92
[17] = tested on: HT-29
[18] = tested on: Hs-578T
[19] = tested on: IGROV-1
[20] = tested on: K562
[21] = tested on: KM12
[22] = tested on: LOX IMVI
[23] = tested on: M14
[24] = tested on: MCF7
[25] = tested on: MDA-MB-435
[26] = tested on: MDA-N
[27] = tested on: MOLT-4
[28] = tested on: Malme-3M
[29] = tested on: NCI-H226
[30] = tested on: NCI-H23
[31] = tested on: NCI-H460
[32] = tested on: NCI-H522
[33] = tested on: NCI/ADR-RES
[34] = tested on: OVCAR-3
[35] = tested on: OVCAR-4
[36] = tested on: OVCAR-5
[37] = tested on: OVCAR-8
[38] = tested on: PC-3
[39] = tested on: RPMI-8226
[40] = tested on: RXF 393
[41] = tested on: SF-268
[42] = tested on: SF-295
[43] = tested on: SF-539
[44] = tested on: SK-MEL-28
[45] = tested on: SK-MEL-2
[46] = tested on: SK-MEL-5
[47] = tested on: SN12C
[48] = tested on: SNB-19
[49] = tested on: SNB-75
[50] = tested on: SR
[51] = tested on: SW-620
[52] = tested on: T47D
[53] = tested on: TK-10
[54] = tested on: U-251
[55] = tested on: UACC-257
[56] = tested on: UACC-62
[57] = tested on: UO-31
[58] = tested on: MDA-MB-231
[59] = tested on: SK-OV-3

For Cc1ccc(C(=O)O)c(/C=C2\Cc3ccc(C)cc3C2=O)c1, the GI50 [1] was 62.2 µM (inactive), the GI50 [2] was 65.9 µM (inactive) and the GI50 [3] was 91.2 µM (inactive). For the same molecule, the GI50 [4] was 55.2 µM (inactive), the GI50 [5] was 12.9 µM (inactive) and the GI50 [6] was 44.3 µM (inactive). For the same molecule, the GI50 [7] was 51.3 µM (inactive), the GI50 [8] was 51.4 µM (inactive) and the GI50 [9] was 79.8 µM (inactive). For the same molecule, the GI50 [10] was 98.9 µM (inactive), the GI50 [11] was 38.9 µM (inactive) and the GI50 [12] was 44.2 µM (inactive). The GI50 [13] was 56.4 µM, the GI50 [14] was 28.6 µM (inactive) and the GI50 [15] was 44.2 µM (inactive). The GI50 [16] was > 100 µM (inactive), the GI50 [17] was 34.8 µM (inactive) and the GI50 [18] was 64.3 µM (inactive). The GI50 [19] was > 100 µM (inactive), the GI50 [20] was 39.9 µM (inactive) and the GI50 [21] was 61.4 µM (inactive). For the same molecule, the GI50 [22] was 33.3 µM (inactive), the GI50 [23] was > 100 µM (inactive) and the GI50 [24] was 63.5 µM (inactive). The GI50 [25] was 38 µM (inactive), the GI50 [26] was 37.8 µM (inactive) and the GI50 [27] was 33.6 µM (inactive). The GI50 [28] was 95.9 µM (inactive), the GI50 [29] was 28.2 µM (inactive) and the GI50 [30] was 75.3 µM (inactive). The GI50 [31] was 56.4 µM (inactive), the GI50 [32] was 96.8 µM (inactive) and the GI50 [33] was 71.8 µM (inactive). The GI50 [34] was 31.8 µM (inactive), the GI50 [35] was 50.5 µM (inactive) and the GI50 [36] was 28.4 µM (inactive). The GI50 [37] was 61.5 µM (inactive), the GI50 [38] was 48.8 µM (inactive) and the GI50 [39] was 19.5 µM (inactive). For the same molecule, the GI50 [40] was 42.3 µM (inactive), the GI50 [41] was 41 µM (inactive) and the GI50 [42] was 38.1 µM (inactive). The GI50 [43] was 20 µM (inactive), the GI50 [44] was 78.9 µM (inactive) and the GI50 [45] was 32 µM (inactive). The GI50 [46] was 25.1 µM (inactive), the GI50 [47] was 40.6 µM (inactive) and the GI50 [48] was 45.1 µM (inactive). For the same molecule, the GI50 [49] was 34 µM (inactive), the GI50 [50] was 32.5 µM (inactive) and the GI50 [51] was > 100 µM (inactive). The GI50 [52] was 92 µM (inactive), the GI50 [53] was > 100 µM (inactive) and the GI50 [54] was 34 µM (inactive). The GI50 [55] was 78.5 µM (inactive), the GI50 [56] was 69.2 µM (inactive) and the GI50 [57] was 62.1 µM (inactive).

Cc1cn(CC2=NCC(C)N2)c(=O)[nH]c1=O (stereo not given) was tested, and the GI50 [1] was > 100 µM (inactive), the GI50 [2] was > 100 µM (inactive) and the GI50 [3] was > 100 µM (inactive). The GI50 [4] was > 100 µM (inactive), the GI50 [5] was > 100 µM (inactive) and the GI50 [8] was > 100 µM (inactive). For the same molecule, the GI50 [9] was > 100 µM (inactive), the GI50 [10] was > 100 µM (inactive) and the GI50 [11] was > 100 µM (inactive). The GI50 [12] was > 100 µM (inactive), the GI50 [13] was greater than 100 µM and the GI50 [15] was > 100 µM (inactive). For the same molecule, the GI50 [16] was > 100 µM (inactive), the GI50 [17] was > 100 µM (inactive) and the GI50 [18] was > 100 µM (inactive). The GI50 [19] was > 100 µM (inactive), the GI50 [20] was > 100 µM (inactive) and the GI50 [22] was > 100 µM (inactive). The GI50 [23] was > 100 µM (inactive), the GI50 [24] was > 100 µM (inactive) and the GI50 [58] was > 100 µM (inactive). For the same molecule, the GI50 [26] was > 100 µM (inactive), the GI50 [27] was > 100 µM (inactive) and the GI50 [28] was > 100 µM (inactive). For the same molecule, the GI50 [29] was > 100 µM (inactive), the GI50 [30] was > 100 µM (inactive) and the GI50 [31] was > 100 µM (inactive). The GI50 [32] was > 100 µM (inactive), the GI50 [33] was > 100 µM (inactive) and the GI50 [36] was > 100 µM (inactive). The GI50 [37] was > 100 µM (inactive), the GI50 [38] was > 100 µM (inactive) and the GI50 [39] was > 100 µM (inactive). For the same molecule, the GI50 [40] was > 100 µM (inactive), the GI50 [41] was > 100 µM (inactive) and the GI50 [42] was > 100 µM (inactive). The GI50 [44] was > 100 µM (inactive), the GI50 [45] was > 100 µM (inactive) and the GI50 [46] was > 100 µM (inactive). For the same molecule, the GI50 [59] was > 100 µM (inactive), the GI50 [47] was > 100 µM (inactive) and the GI50 [48] was > 100 µM (inactive). For the same molecule, the GI50 [49] was > 100 µM (inactive), the GI50 [50] was > 100 µM (inactive) and the GI50 [51] was > 100 µM (inactive). For the same molecule, the GI50 [52] was > 100 µM (inactive), the GI50 [53] was > 100 µM (inactive) and the GI50 [54] was > 100 µM (inactive). The GI50 [55] was > 100 µM (inactive), the GI50 [56] was > 100 µM (inactive) and the GI50 [57] was > 100 µM (inactive).

With COC(=O)CC(NC(=O)OCc1ccccc1)C(=O)NC(CC(=O)OC)C(=O)NC(CC(=O)OC)C(=O)NC(CC(=O)OC)C(=O)NC(CC(=O)OC)C(=O)NC(CC(=O)OC)C(=O)NN (stereo not given) (Cbz-D(OMe)D(OMe)D(OMe)D(OMe)D(OMe)D(OMe)-NHNH2; configuration not given here) the GI50 [1] was > 100 µM (inactive), the GI50 [4] was > 100 µM (inactive) and the GI50 [5] was > 100 µM (inactive). The GI50 [7] was > 100 µM (inactive), the GI50 [8] was > 100 µM (inactive) and the GI50 [11] was > 100 µM (inactive). For the same molecule, the GI50 [12] was > 100 µM (inactive), the GI50 [13] was greater than 100 µM and the GI50 [14] was > 100 µM (inactive). The GI50 [15] was > 100 µM (inactive), the GI50 [16] was > 100 µM (inactive) and the GI50 [17] was > 100 µM (inactive). For the same molecule, the GI50 [18] was > 100 µM (inactive), the GI50 [19] was > 100 µM (inactive) and the GI50 [20] was > 100 µM (inactive). For the same molecule, the GI50 [21] was > 100 µM (inactive), the GI50 [22] was > 100 µM (inactive) and the GI50 [23] was > 100 µM (inactive). The GI50 [24] was > 100 µM (inactive), the GI50 [58] was > 100 µM (inactive) and the GI50 [25] was > 100 µM (inactive). For the same molecule, the GI50 [26] was > 100 µM (inactive), the GI50 [27] was > 100 µM (inactive) and the GI50 [31] was > 100 µM (inactive). The GI50 [35] was > 100 µM (inactive), the GI50 [36] was > 100 µM (inactive) and the GI50 [37] was > 100 µM (inactive). For the same molecule, the GI50 [38] was > 100 µM (inactive), the GI50 [39] was > 100 µM (inactive) and the GI50 [41] was > 100 µM (inactive). For the same molecule, the GI50 [42] was > 100 µM (inactive), the GI50 [43] was > 100 µM (inactive) and the GI50 [44] was > 100 µM (inactive). For the same molecule, the GI50 [45] was > 100 µM (inactive), the GI50 [46] was > 100 µM (inactive) and the GI50 [59] was > 100 µM (inactive). The GI50 [47] was > 100 µM (inactive), the GI50 [48] was > 100 µM (inactive) and the GI50 [49] was > 100 µM (inactive). For the same molecule, the GI50 [50] was > 100 µM (inactive), the GI50 [51] was > 100 µM (inactive) and the GI50 [52] was > 100 µM (inactive). The GI50 [53] was > 100 µM (inactive), the GI50 [54] was > 100 µM (inactive) and the GI50 [55] was > 100 µM (inactive). The GI50 [56] was > 100 µM (inactive) and the GI50 [57] was > 100 µM (inactive).
